Experimental data taken from patent publication US10681909B2, “Herbicidal triazoles” (FMC Corporation, priority 2014, dated 2020).

Legend:
lambsquarters = assay: Test D postemergence; assay type: in vivo, Chenopodium album; conditions: scale 0 to 100
Outline: (§1)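 Visual injury ratings compared with untreated controls, taken 14 to 21 d after treatment in a controlled growth environment. Test chemicals were formulated in a surfactant-containing non-phytotoxic solvent and applied either preemergence to seeds in silt loam soil or postemergence to plants at the 1- to 4-leaf stage.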

oilseed rape = assay: Test C preemergence; assay type: in vivo, Brassica napus; conditions: for Plant response rating (scale of 0 to 100 where 0 is no effect and 100 is complete control): Oilseed Rape, preemergence; for Oilseed Rape plant response rating (0 to 100): Preemergence, visual rating after 13 to 15 d
Outline: (§2)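 Plants are treated postemergence at the 1- to 4-leaf stage (2 to 18 cm), grown in sphagnum peat/vermiculite medium; preemergence treatment is applied to seed planted in loam soil with sand. Both use test chemical in a non-phytotoxic solvent mixture with surfactant.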

ragweed = assay: Test C preemergence; assay type: in vivo, Ambrosia elatior; conditions: for Ragweed plant response rating (0 to 100): Preemergence, visual rating after 13 to 15 d; for Plant response rating (scale of 0 to 100 where 0 is no effect and 100 is complete control): Ragweed, preemergence
Outline: as §2

buckwheat, wild = assay: Test D postemergence; assay type: in vivo, Polygonum convolvulus; conditions: scale 0 to 100
Outline: as §1

galium = assay: Test C preemergence; assay type: in vivo, Galium aparine; conditions: for Plant response rating (scale of 0 to 100 where 0 is no effect and 100 is complete control): Galium, preemergence; for Galium plant response rating (0 to 100): Preemergence, visual rating after 13 to 15 d
Outline: as §2

ryegrass, Ital. = assay: Test D postemergence; assay type: in vivo, Lolium multiflorum; conditions: scale 0 to 100
Outline: as §1

wild mustard = assay: Test D preemergence; assay type: in vivo, Sinapis arvensis; conditions: scale 0 to 100
Outline: as §1

windgrass = assay: Test D postemergence; assay type: in vivo, Apera spica-venti; conditions: scale 0 to 100
Outline: as §1

barley, winter = assay: Test D preemergence; assay type: in vivo, Hordeum vulgare; conditions: scale 0 to 100
Outline: as §1

barley, spring = assay: Test D preemergence; assay type: in vivo, Hordeum vulgare; conditions: scale 0 to 100
Outline: as §1

kochia = assay: Test D preemergence; assay type: in vivo, Kochia scoparia; conditions: scale 0 to 100
Outline: as §1

foxtail, giant = assay: Test C preemergence; assay type: in vivo, Setaria faberii; conditions: for Plant response rating (scale of 0 to 100 where 0 is no effect and 100 is complete control): Foxtail, Giant, preemergence; for Foxtail, Giant plant response rating (0 to 100): Preemergence, visual rating after 13 to 15 d
Outline: as §2

velvetleaf = assay: Test A postemergence; assay type: in vivo, Abutilon theophrasti; conditions: Abutilon theophrasti, post-emergence, 240 h, 0 to 100 scale (0 no effect, 100 complete control), approx. 10 d, read-out: Plant response rating, Velvetleaf; for pest or weed control at 125 g/ha: 125 g ai/ha; for pest or weed control at 500 g/ha: 500 g ai/ha
Outline: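 Test chemicals, formulated in a surfactant-containing non-phytotoxic solvent mixture, are applied either as a directed soil spray to newly planted seeds or as a postemergence application to plants at the one- to two-leaf stage (2–10 cm). All plants grow in a loam soil and sand blend.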

CCc1nc(-c2ccc(C(F)(F)F)cc2)nn1Cc1ccnc(C(F)(F)F)c1 [Compound 1, 4-[[5-ethyl-3-[4-(trifluoromethyl)phenyl]-1H-1,2,4-triazol-1-yl]methyl]-2-(trifluoromethyl)pyridine]
Plant response rating: Lambsquarters (lambsquarters; 31 g ai/ha): 75 | Plant response rating: Lambsquarters (lambsquarters; 62 g ai/ha): 80 | Plant response rating: Lambsquarters (lambsquarters; 125 g ai/ha): 85 | Plant response rating: Lambsquarters (lambsquarters; 250 g ai/ha): 90 | Plant response rating (scale of 0 to 100 where 0 is no effect and 100 is complete control) (oilseed rape; 125 g ai/ha): 100 | Plant response rating (scale of 0 to 100 where 0 is no effect and 100 is complete control) (oilseed rape; 250 g ai/ha): 100 | Oilseed Rape plant response rating (0 to 100) (oilseed rape; 31 g ai/ha): 25 | Oilseed Rape plant response rating (0 to 100) (oilseed rape; 62 g ai/ha): 90 | Ragweed plant response rating (0 to 100) (ragweed; 31 g ai/ha): 35 | Ragweed plant response rating (0 to 100) (ragweed; 62 g ai/ha): 50 | Plant response rating (scale of 0 to 100 where 0 is no effect and 100 is complete control) (ragweed; 125 g ai/ha): 60 | Plant response rating (scale of 0 to 100 where 0 is no effect and 100 is complete control) (ragweed; 250 g ai/ha): 70 | Plant response rating: Buckwheat, Wild (buckwheat, wild; 31 g ai/ha): 60 | Plant response rating: Buckwheat, Wild (buckwheat, wild; 62 g ai/ha): 80 | Plant response rating: Buckwheat, Wild (buckwheat, wild; 125 g ai/ha): 100 | Plant response rating: Buckwheat, Wild (buckwheat, wild; 250 g ai/ha): 100 | Plant response rating (scale of 0 to 100 where 0 is no effect and 100 is complete control) (galium; 125 g ai/ha): 100 | Plant response rating (scale of 0 to 100 where 0 is no effect and 100 is complete control) (galium; 250 g ai/ha): 100 | Galium plant response rating (0 to 100) (galium; 31 g ai/ha): 70 | Galium plant response rating (0 to 100) (galium; 62 g ai/ha): 98 | Plant response rating: Ryegrass, Ital. (ryegrass, Ital.; 31 g ai/ha): 10 | Plant response rating: Ryegrass, Ital. (ryegrass, Ital.; 62 g ai/ha): 15 | Plant response rating: Ryegrass, Ital. (ryegrass, Ital.; 125 g ai/ha): 20 | Plant response rating: Ryegrass, Ital. (ryegrass, Ital.; 250 g ai/ha): 35 | Plant response rating: Mustard, Wild (wild mustard; 62 g ai/ha): 100 | Plant response rating: Mustard, Wild (wild mustard; 125 g ai/ha): 100 | Plant response rating: Mustard, Wild (wild mustard; 250 g ai/ha): 100 | Plant response rating: Windgrass (windgrass; 31 g ai/ha): 15 | Plant response rating: Windgrass (windgrass; 62 g ai/ha): 20 | Plant response rating: Windgrass (windgrass; 125 g ai/ha): 30 | Plant response rating: Windgrass (windgrass; 250 g ai/ha): 60 | Plant response rating: Barley, Winter (barley, winter; 31 g ai/ha): 0 | Plant response rating: Barley, Winter (barley, winter; 62 g ai/ha): 5 | Plant response rating: Barley, Winter (barley, winter; 125 g ai/ha): 10 | Plant response rating: Barley, Winter (barley, winter; 250 g ai/ha): 20 | Plant response rating: Barley, Spring (barley, spring; 31 g ai/ha): 0 | Plant response rating: Barley, Spring (barley, spring; 62 g ai/ha): 0 | Plant response rating: Barley, Spring (barley, spring; 125 g ai/ha): 0 | Plant response rating: Barley, Spring (barley, spring; 250 g ai/ha): 5 | Plant response rating: Kochia (kochia; 62 g ai/ha): 70 | Plant response rating: Kochia (kochia; 125 g ai/ha): 100 | Plant response rating: Kochia (kochia; 250 g ai/ha): 100 | Plant response rating (scale of 0 to 100 where 0 is no effect and 100 is complete control) (foxtail, giant; 125 g ai/ha): 100 | Plant response rating (scale of 0 to 100 where 0 is no effect and 100 is complete control) (foxtail, giant; 250 g ai/ha): 100 | Foxtail, Giant plant response rating (0 to 100) (foxtail, giant; 31 g ai/ha): 98 | Foxtail, Giant plant response rating (0 to 100) (foxtail, giant; 62 g ai/ha): 98 | pest or weed control at 125 g/ha (velvetleaf): 90% | pest or weed control at 500 g/ha (velvetleaf): 100%

CCOc1nc(-c2ccc(F)cc2)nn1Cc1ccnc(C(F)(F)F)c1 [Compound 8, 4-[[5-ethoxy-3-(4-fluorophenyl)-1H-1,2,4-triazol-1-yl]methyl]-2-(trifluoromethyl)pyridine]
Plant response rating: Lambsquarters (lambsquarters; 31 g ai/ha): 95 | Plant response rating: Lambsquarters (lambsquarters; 62 g ai/ha): 95 | Plant response rating: Lambsquarters (lambsquarters; 125 g ai/ha): 95 | Plant response rating: Lambsquarters (lambsquarters; 250 g ai/ha): 90 | Plant response rating (scale of 0 to 100 where 0 is no effect and 100 is complete control) (oilseed rape; 125 g ai/ha): 100 | Plant response rating (scale of 0 to 100 where 0 is no effect and 100 is complete control) (oilseed rape; 250 g ai/ha): 100 | Oilseed Rape plant response rating (0 to 100) (oilseed rape; 31 g ai/ha): 95 | Oilseed Rape plant response rating (0 to 100) (oilseed rape; 62 g ai/ha): 95 | Ragweed plant response rating (0 to 100) (ragweed; 31 g ai/ha): 75 | Ragweed plant response rating (0 to 100) (ragweed; 62 g ai/ha): 85 | Plant response rating (scale of 0 to 100 where 0 is no effect and 100 is complete control) (ragweed; 125 g ai/ha): 90 | Plant response rating (scale of 0 to 100 where 0 is no effect and 100 is complete control) (ragweed; 250 g ai/ha): 90 | Plant response rating: Buckwheat, Wild (buckwheat, wild; 31 g ai/ha): 70 | Plant response rating: Buckwheat, Wild (buckwheat, wild; 62 g ai/ha): 70 | Plant response rating: Buckwheat, Wild (buckwheat, wild; 125 g ai/ha): 95 | Plant response rating: Buckwheat, Wild (buckwheat, wild; 250 g ai/ha): 95 | Plant response rating (scale of 0 to 100 where 0 is no effect and 100 is complete control) (galium; 125 g ai/ha): 100 | Plant response rating (scale of 0 to 100 where 0 is no effect and 100 is complete control) (galium; 250 g ai/ha): 100 | Galium plant response rating (0 to 100) (galium; 31 g ai/ha): 80 | Galium plant response rating (0 to 100) (galium; 62 g ai/ha): 100 | Plant response rating: Ryegrass, Ital. (ryegrass, Ital.; 31 g ai/ha): 35 | Plant response rating: Ryegrass, Ital. (ryegrass, Ital.; 62 g ai/ha): 35 | Plant response rating: Ryegrass, Ital. (ryegrass, Ital.; 125 g ai/ha): 55 | Plant response rating: Ryegrass, Ital. (ryegrass, Ital.; 250 g ai/ha): 55 | Plant response rating: Mustard, Wild (wild mustard; 62 g ai/ha): 100 | Plant response rating: Mustard, Wild (wild mustard; 125 g ai/ha): 100 | Plant response rating: Mustard, Wild (wild mustard; 250 g ai/ha): 100 | Plant response rating: Windgrass (windgrass; 31 g ai/ha): 40 | Plant response rating: Windgrass (windgrass; 62 g ai/ha): 60 | Plant response rating: Windgrass (windgrass; 125 g ai/ha): 75 | Plant response rating: Windgrass (windgrass; 250 g ai/ha): 85 | Plant response rating: Barley, Winter (barley, winter; 31 g ai/ha): 5 | Plant response rating: Barley, Winter (barley, winter; 62 g ai/ha): 25 | Plant response rating: Barley, Winter (barley, winter; 125 g ai/ha): 35 | Plant response rating: Barley, Winter (barley, winter; 250 g ai/ha): 45 | Plant response rating: Barley, Spring (barley, spring; 31 g ai/ha): 5 | Plant response rating: Barley, Spring (barley, spring; 62 g ai/ha): 20 | Plant response rating: Barley, Spring (barley, spring; 125 g ai/ha): 45 | Plant response rating: Barley, Spring (barley, spring; 250 g ai/ha): 60 | Plant response rating: Kochia (kochia; 62 g ai/ha): 100 | Plant response rating: Kochia (kochia; 125 g ai/ha): 100 | Plant response rating: Kochia (kochia; 250 g ai/ha): 100 | Plant response rating (scale of 0 to 100 where 0 is no effect and 100 is complete control) (foxtail, giant; 125 g ai/ha): 100 | Plant response rating (scale of 0 to 100 where 0 is no effect and 100 is complete control) (foxtail, giant; 250 g ai/ha): 100 | Foxtail, Giant plant response rating (0 to 100) (foxtail, giant; 31 g ai/ha): 100 | Foxtail, Giant plant response rating (0 to 100) (foxtail, giant; 62 g ai/ha): 100 | pest or weed control at 125 g/ha (velvetleaf): 90% | pest or weed control at 500 g/ha (velvetleaf): 100%
